Reference: publication PMC5778463 (Nucleic Acids Research, 2017)
Where “and” joins values, the source holds several entries; their conditions need not be identical. Identical values can stand only once.

Experiments:
influenza B strains = conditions: cited from earlier work
[1] = molecular target: B/Memphis cap-midlink double domain (Influenza B virus, UniProt Q5V8X3); assay: biochemical; format: binding, influenza B/Memphis/13/03
[2] = test system: isolated influenza A PB2 cap-binding domain; conditions: cited from earlier work

B/Memphis cap-midlink double domain, sequence (Q5V8X3 249-540 limits assumed): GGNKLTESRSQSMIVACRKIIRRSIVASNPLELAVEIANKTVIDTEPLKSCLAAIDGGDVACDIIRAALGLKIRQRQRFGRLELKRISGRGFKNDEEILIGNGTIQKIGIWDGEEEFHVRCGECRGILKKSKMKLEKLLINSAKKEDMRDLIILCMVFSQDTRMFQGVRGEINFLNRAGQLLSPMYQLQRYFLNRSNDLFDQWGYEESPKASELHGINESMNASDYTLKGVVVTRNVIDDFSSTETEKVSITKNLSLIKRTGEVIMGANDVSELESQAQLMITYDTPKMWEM

## O=C(O)[C@H]1C2CCC(CC2)[C@@H]1Nc1nc(-c2c[nH]c3ncc(F)cc23)ncc1F [VX-787]
Influenza B strains
  potency against influenza B strains: no potency
[1]
  Kd: 1200 nM
[2]
  times tighter binding than m^7GTP: ~60 times
[2]; read-out: affinity to cap-binding domain alone
  Kd: ~24 nM and 24 nM
